In patent publication US12037345B2, “Heterobicyclic compounds for inhibiting the activity of SHP2” (TAIHO PHARMACEUTICAL CO., LTD., priority 2018, dated 2024):
Like-named read-outs stand apart in the source and are kept apart here.

Legend:
[1] = system: pERK (phospho-p44/42 ERK) in HCC827 cells; assay: Cellular pERK Inhibition Assay, Method A (In-Cell Western); type: cell-based
Procedure, shortened: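 In-Cell Western: phospho-p44/42 ERK antibody staining of formalin-fixed HCC827 cells after compound exposure (serum-free medium, 0.2% DMSO, 37 °C, indicated time). Readings minus cell-free blanks were normalised to DMSO-treated wells. Relative IC50 came from four-parameter logistic fits of quadruplicates, given as single or mean values.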

SHP2 = SHP2 (Homo sapiens (Human), UniProt Q06124); assay: SHP2 Biochemical Assay (DiFMUP conversion, pIRS1-activated)
Sequence of SHP2 (Q06124 whole entry): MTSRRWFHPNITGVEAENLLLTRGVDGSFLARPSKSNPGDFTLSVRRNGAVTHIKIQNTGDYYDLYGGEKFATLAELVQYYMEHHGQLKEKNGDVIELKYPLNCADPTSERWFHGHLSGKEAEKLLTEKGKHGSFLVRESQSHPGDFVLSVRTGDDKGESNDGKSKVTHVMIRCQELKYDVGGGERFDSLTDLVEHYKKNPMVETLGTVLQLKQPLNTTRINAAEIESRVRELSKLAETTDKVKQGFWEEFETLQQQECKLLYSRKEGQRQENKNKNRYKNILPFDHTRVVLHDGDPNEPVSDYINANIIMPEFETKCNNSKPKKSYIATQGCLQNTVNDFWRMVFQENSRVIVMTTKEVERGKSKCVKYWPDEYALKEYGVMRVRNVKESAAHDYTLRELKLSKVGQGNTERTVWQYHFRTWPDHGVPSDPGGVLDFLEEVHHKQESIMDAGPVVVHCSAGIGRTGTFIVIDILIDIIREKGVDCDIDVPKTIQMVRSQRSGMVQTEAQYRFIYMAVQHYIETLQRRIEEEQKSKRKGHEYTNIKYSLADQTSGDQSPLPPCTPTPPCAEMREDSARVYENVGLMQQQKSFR
Procedure, shortened: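 Rates of DiFMU formation were followed 30 min at ex 360/em 450 nm, with 50 μM DiFMUP, 10 pM SHP2 and pIRS1 peptide ([…]) after 30 min compound pre-incubation at pH 7.0 Bis-Tris propane. Four-parameter logistic IC50s in singlicate; repeat runs averaged.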

[2] = Homo sapiens, Table 19, head prints unit as "-M", read-out: pERK (IC50) Method A
[3] = Table 19, head prints unit as "-M"
[4] = Homo sapiens, Table 20, read-out: pERK (IC50, μM) Method A

Compound | IC50 [1, 2] | IC50 (SHP2; [3]) | IC50 [1, 4] | IC50 (SHP2; Table 20) | IC50 ([1]; Table 19, head prints unit as "-M", read-out: pERK (IC50) Method A)
CCn1cc2c(Cl)c(-c3c[nH]c4nc(N5CCC6(CC5)COC[C@H]6N)n(C)c(=O)c34)ccc2n1 [Example 12, (S)-2-(4-amino-2-oxa-8-azaspiro[4.5]decan-8-yl)-5-(4-chloro-2-ethyl-2H-indazol-5-yl)-3-methyl-3,7-dihydro-4H-pyrrolo[2,3-d]pyrimidin-4-one] | 0.12 µM | 11 nM | – | – | –
CCn1cc2c(Cl)c(-c3c[nH]c4nc(N5[C@H]6CC[C@@H]5[C@H](NC)C6)n(C)c(=O)c34)ccc2n1 [Example 98, 5-(4-chloro-2-ethyl-2H-indazol-5-yl)-3-methyl-2-((1R,2R,4S)-2-(methylamino)-7-azabicyclo[2.2.1]heptan-7-yl)-3,7-dihydro-4H-pyrrolo[2,3-d]pyrimidin-4-one] | 0.19 µM | 10 nM | – | – | –
CCn1cc2c(Cl)c(-c3c[nH]c4nc(N5CCC(C)(CN)CC5)n(C)c(=O)c34)ccc2n1 [Example 2, 2-(4-(aminomethyl)-4-methylpiperidin-1-yl)-5-(4-chloro-2-ethyl-2H-indazol-5-yl)-3-methyl-3,7-dihydro-4H-pyrrolo[2,3-d]pyrimidin-4-one] | 0.13 µM | 14 nM | – | – | –
Cn1cc2c(Cl)c(-c3c[nH]c4nc(N5CC[C@@H](N)C5)n(C)c(=O)c34)ccc2n1 [Example 44, (R)-2-(3-aminopyrrolidin-1-yl)-5-(4-chloro-2-methyl-2H-indazol-5-yl)-3-methyl-3,7-dihydro-4H-pyrrolo[2,3-d]pyrimidin-4-one] | 1.5 µM | 55 nM | – | – | –
Cn1nc2ccc(-c3n[nH]c4nc(N5[C@H]6CC[C@@H]5[C@H](N)C6)n(C)c(=O)c34)c(Cl)c2c1Cl [Example 114, 6-((1R,2R,4S)-2-amino-7-azabicyclo[2.2.1]heptan-7-yl)-3-(3,4-dichloro-2-methyl-2H-indazol-5-yl)-5-methyl-1,5-dihydro-4H-pyrazolo[3,4-d]pyrimidin-4-one] | 0.073 µM | 5.5 nM | – | – | –
Cn1cc2c(Cl)c(-c3c[nH]c4nc(N5CC[C@H](N)C5)n(C)c(=O)c34)ccc2n1 [Example 43, (S)-2-(3-aminopyrrolidin-1-yl)-5-(4-chloro-2-methyl-2H-indazol-5-yl)-3-methyl-3,7-dihydro-4H-pyrrolo[2,3-d]pyrimidin-4-one] | 0.72 µM | 35 nM | – | – | –
Cn1cc2c(Cl)c(-c3c[nH]c4nc(N5CC6CC6(N)C5)n(C)c(=O)c34)ccc2n1 (stereo not drawn) [Example 61, 2-(1-amino-3-azabicyclo[3.1.0]hexan-3-yl)-5-(4-chloro-2-methyl-2H-indazol-5-yl)-3-methyl-3,7-dihydro-4H-pyrrolo[2,3-d]pyrimidin-4-one] | 1.8 µM | 98 nM | – | – | –
Cn1cc2c(Cl)c(-c3c[nH]c4nc(N5C[C@H]6C[C@@H]5CN6)n(C)c(=O)c34)ccc2n1 [Example 23, 2-((1R,4R)-2,5-diazabicyclo[2.2.1]heptan-2-yl)-5-(4-chloro-2-methyl-2H-indazol-5-yl)-3-methyl-3,7-dihydro-4H-pyrrolo[2,3-d]pyrimidin-4-one] | 4.1 µM | 120 nM | – | – | –
Cn1nc2ccc(-c3n[nH]c4nc(N5[C@@H]6CC[C@H]5C[C@@](C)(N)C6)n(C)c(=O)c34)c(Cl)c2c1Cl [Example 161, 6-(endo-3-amino-3-methyl-8-azabicyclo[3.2.1]octan-8-yl)-3-(3,4-dichloro-2-methyl-2H-indazol-5-yl)-5-methyl-1,5-dihydro-4H-pyrazolo[3,4-d]pyrimidin-4-one] | – | – | 0.26 µM | 12 nM | –
CCn1cc2c(Cl)c(-c3n[nH]c4nc(N5[C@H]6CC[C@@H]5[C@H](N)C6)n(C)c(=O)c34)ccc2n1 [Example 112, 6-((1R,2R,4S)-2-amino-7-azabicyclo[2.2.1]heptan-7-yl)-3-(4-chloro-2-ethyl-2H-indazol-5-yl)-5-methyl-1,5-dihydro-4H-pyrazolo[3,4-d]pyrimidin-4-one] | 0.26 µM | 13 nM | – | – | –
COc1c(-c2c[nH]c3nc(N4C5CCC4CC(N)C5)n(C)c(=O)c23)ccc2nn(C)cc12 (stereo not drawn) [Example 73, 2-(endo-3-amino-8-azabicyclo[3.2.1]octan-8-yl)-5-(4-methoxy-2-methyl-2H-indazol-5-yl)-3-methyl-3,7-dihydro-4H-pyrrolo[2,3-d]pyrimidin-4-one] | – | 870 nM | – | – | > 10 µM
Cn1cc2c(Cl)c(-c3c[nH]c4nc(N5C6CNCC5C6)n(C)c(=O)c34)ccc2n1 [Example 29, 2-(3,6-diazabicyclo[3.1.1]heptan-6-yl)-5-(4-chloro-2-methyl-2H-indazol-5-yl)-3-methyl-3,7-dihydro-4H-pyrrolo[2,3-d]pyrimidin-4-one] | 2.4 µM | 220 nM | – | – | –
Cn1nc2ccc(-c3c[nH]c4nc(N5C6CCC5CNC6)n(C)c(=O)c34)c(Cl)c2n1 [Example 87, 2-(3,8-diazabicyclo[3.2.1]octan-8-yl)-5-(4-chloro-2-methyl-2H-benzo[d][1,2,3]triazol-5-yl)-3-methyl-3,7-dihydro-4H-pyrrolo[2,3-d]pyrimidin-4-one] | 0.58 µM | 68 nM | – | – | –
Cn1cc2c(Cl)c(-c3c[nH]c4nc(N5CCC6NCC6C5)n(C)c(=O)c34)ccc2n1 (stereo not drawn) [Example 40, 2-(3,7-diazabicyclo[4.2.0]octan-3-yl)-5-(4-chloro-2-methyl-2H-indazol-5-yl)-3-methyl-3,7-dihydro-4H-pyrrolo[2,3-d]pyrimidin-4-one] | 4.5 µM | 96 nM | – | – | –
Cc1nc2ccc(-c3c[nH]c4nc(N5[C@@H]6CC[C@H]5C[C@@H](N)C6)n(C)c(=O)c34)c(Cl)c2o1 [Example 68, 2-(endo-3-amino-8-azabicyclo[3.2.1]octan-8-yl)-5-(7-chloro-2-methylbenzo[d]oxazol-6-yl)-3-methyl-3,7-dihydro-4H-pyrrolo[2,3-d]pyrimidin-4-one] | 0.67 µM | 41 nM | – | – | –
Cn1c(N2C[C@@H]3CC[C@H]2[C@H]3N)nc2[nH]nc(-c3ccc4ncsc4c3Cl)c2c1=O (racemic) [Example 134, rac-((1S,4S,7S)-7-amino-2-azabicyclo[2.2.1]heptan-2-yl)-3-(7-chlorobenzo[d]thiazol-6-yl)-5-methyl-1,5-dihydro-4H-pyrazolo[3,4-d]pyrimidin-4-one] | 0.083 µM | 4 nM | – | – | –
COCCn1cc2c(Cl)c(-c3c[nH]c4nc(N5[C@H]6CC[C@@H]5[C@H](N)C6)n(C)c(=O)c34)ccc2n1 [Example 178, 2-((1R,2R,4S)-2-amino-7-azabicyclo[2.2.1]heptan-7-yl)-5-(4-chloro-2-(2-methoxyethyl)-2H-indazol-5-yl)-3-methyl-3,7-dihydro-4H-pyrrolo[2,3-d]pyrimidin-4-one] | – | – | 0.071 µM | 5 nM | –
Cn1c(N2[C@@H]3CC[C@H]2C[C@@H](N)C3)nc2[nH]cc(-c3ccc4nn(CC(C)(C)O)cc4c3Cl)c2c1=O [Example 75, 2-(endo-3-amino-8-azabicyclo[3.2.1]octan-8-yl)-5-(4-chloro-2-(2-hydroxy-2-methylpropyl)-2H-indazol-5-yl)-3-methyl-3,7-dihydro-4H-pyrrolo[2,3-d]pyrimidin-4-one] | 2.1 µM | 28 nM | – | – | –
CCn1cc2c(Cl)c(-c3n[nH]c4nc(N5C6CCCC5CNC6)n(C)c(=O)c34)ccc2n1 [Example 111, 6-(3,9-diazabicyclo[3.3.1]nonan-9-yl)-3-(4-chloro-2-ethyl-2H-indazol-5-yl)-5-methyl-1,5-dihydro-4H-pyrazolo[3,4-d]pyrimidin-4-one] | 0.41 µM | 26 nM | – | – | –
Cn1cc2c(Cl)c(-c3c[nH]c4nc(N5CC[C@@](C)(N)C5)n(C)c(=O)c34)ccc2n1 [Example 55, (R)-2-(3-amino-3-methylpyrrolidin-1-yl)-5-(4-chloro-2-methyl-2H-indazol-5-yl)-3-methyl-3,7-dihydro-4H-pyrrolo[2,3-d]pyrimidin-4-one] | 1.1 µM | 74 nM | – | – | –
Cn1nc2ccc(-c3n[nH]c4nc(N5C6CCCC5CNC6)n(C)c(=O)c34)c(Cl)c2c1Cl [Example 116, 6-(3,9-diazabicyclo[3.3.1]nonan-9-yl)-3-(3,4-dichloro-2-methyl-2H-indazol-5-yl)-5-methyl-1,5-dihydro-4H-pyrazolo[3,4-d]pyrimidin-4-one] | 0.1 µM | 9 nM | – | – | –
CCN[C@@H]1C[C@@H]2CC[C@H]1N2c1nc2[nH]nc(-c3ccc4nn(C)c(Cl)c4c3Cl)c2c(=O)n1C [Example 177, 3-(3,4-dichloro-2-methyl-2H-indazol-5-yl)-6-((1R,2R,4S)-2-(ethylamino)-7-azabicyclo[2.2.1]heptan-7-yl)-5-methyl-1,5-dihydro-4H-pyrazolo[3,4-d]pyrimidin-4-one] | – | – | 1.4 µM | 95 nM | –
CN(C)c1cnc2ccc(-c3c[nH]c4nc(N5[C@H]6CC[C@@H]5[C@H](N)C6)n(C)c(=O)c34)c(Cl)c2n1 [Example 170, 2-((1R,2R,4S)-2-amino-7-azabicyclo[2.2.1]heptan-7-yl)-5-(5-chloro-3-(dimethylamino)quinoxalin-6-yl)-3-methyl-3,7-dihydro-4H-pyrrolo[2,3-d]pyrimidin-4-one] | – | – | 0.016 µM | 3 nM | –
Cn1c(N2C3CCCC2CNC3)nc2[nH]nc(-c3ccc4ncsc4c3Cl)c2c1=O [Example 122, 6-(3,9-diazabicyclo[3.3.1]nonan-9-yl)-3-(7-chlorobenzo[d]thiazol-6-yl)-5-methyl-1,5-dihydro-4H-pyrazolo[3,4-d]pyrimidin-4-one] | 0.14 µM | 8 nM | – | – | –
